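Cultured in 96-well plates, cells were exposed to test compound for 48 hours across five concentrations. The concentration for full growth arrest is given as TGI.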
Key:
Assay in all cases: NCI tumour cell line growth inhibition, 48 h
COLO 205 colon = system: COLO 205 colon
HT29 colon = system: HT29 colon
MALME-3M melanoma = system: MALME-3M melanoma
M14 melanoma = system: M14 melanoma
SW-620 colon = system: SW-620 colon
SNB-75 CNS = system: SNB-75 CNS
OVCAR-8 ovarian = system: OVCAR-8 ovarian
K-562 leukemia = system: K-562 leukemia
NCI-H23 lung = system: NCI-H23 lung
SK-MEL-2 melanoma = system: SK-MEL-2 melanoma
EKVX NSCLC = system: EKVX NSCLC
CAKI-1 renal = system: CAKI-1 renal
UACC-62 melanoma = system: UACC-62 melanoma

SMILES | TGI (COLO 205 colon) [µM] | TGI (HT29 colon) [µM] | TGI (MALME-3M melanoma) [µM] | TGI (M14 melanoma) [µM] | TGI (SW-620 colon) [µM] | TGI (SNB-75 CNS) [µM] | TGI (OVCAR-8 ovarian) [µM] | TGI (K-562 leukemia) [µM] | TGI (NCI-H23 lung) [µM] | TGI (SK-MEL-2 melanoma) [µM] | TGI (EKVX NSCLC) [µM] | TGI (CAKI-1 renal) [µM] | TGI (UACC-62 melanoma) [µM]
CC1CCC2(CC1)NC1=C(CC(C)CC1)C1=C2CC(C)CC1 (configuration not stated) | 49.8 | 46.5 | 74.5 | 40.6 | 37.7 | 59.7 | 65.6 | 42.9 | 59 | 57.8 | > 100 | 54.5 | 
c1ccc2c(c1)NC1(N3CCCCC3)CCCCC21 (configuration not stated) | > 100 | > 100 | > 100 | > 100 | > 100 | > 100 | > 100 | > 100 | > 100 | > 100 | > 100 | > 100 | > 100
COC(=O)CCC(C)C1CCC2C3C(C[C@H](OC(C)=O)[C@]12C)[C@@]1(C)CCC2(C[C@H]1C[C@H]3OC(C)=O)OOC1(CC[C@]3(C)C4C[C@H](OC(C)=O)[C@]5(C)C(C(C)CCC(=O)OC)CCC5C4[C@H](OC(C)=O)C[C@@H]3C1)OO2 (some centres not stated) | > 100 | > 100 | > 100 | > 100 | > 100 | > 100 | > 100 | > 100 | > 100 | > 100 | > 100 | > 100 | 
CC(=O)C1=C(C)N(c2ccc(C)cc2)C2(O)C3=C(C(=O)c4ccccc4C3=O)C(O)=CC12Cl (configuration not stated) | 63.9 | 60.1 | 36.5 | > 100 | > 100 | > 100 | 53.4 | > 100 | 34 | 33 | > 100 | 87.1 | 26.5
COC(=O)[C@H](CC(C)C)Nc1c(O)c2c(c(O)c1Cl)C(=O)C=CC2=O | > 10 | 9.41 | > 10 | > 10 | > 10 | > 10 | > 10 | > 10 | > 10 | > 10 | > 10 | > 10 | > 10
C=C[C@]1(C)CCC2=C(CCC3C2(C)CCC[C@@]3(C)COC(C)=O)C1 (some centres not stated) | 30 | 33.9 | 62.4 | 40.3 | 35.5 | 36.7 | 34.6 | 33.5 | 43.3 | 29 | 36.8 | 37.6 | 45.8
O=c1[nH]c(=O)n(C2OC(CO)C(O)C2O)cc1Oc1ccccc1 (configuration not stated) | > 100 | > 100 | > 100 | > 100 | > 100 | > 100 | > 100 | > 100 | > 100 | > 100 | > 100 | > 100 | > 100
COC(=O)C1=C(OC(=O)/C=C/c2ccc(Cl)cc2)C(C(=O)OC)[C@@]2(O)[C@@H](C(=O)OC)[C@H](C)C[C@@H]1[C@@H]2C(=O)OC (some centres not stated) | 40.7 | 65.8 | 38.2 | > 100 | > 100 | > 100 | 41.6 | > 100 | 46 | 37 | 71.8 | 87.3 | 54.1
